The text below walks through data of US5192764A, “Pyrazinone N-oxide nucleosides and analogs thereof” (priority 1991, dated 1993).

One data set deals with bacterial cells. The note with it: literature; cited from earlier work.
A further data set concerns HSV-1 KOS (PFAr). In words: Plaque Reduction Method against HSV-1 KOS phosphonoformate resistant strain. The class given is cell-based. The note with it: Human alphaherpesvirus 1, read-out: ID50. The protocol:
(§1) Using the Plaque Reduction Method, activity against HSV-1 KOS Phosphono formate resistant (PFAr) and KOS 9-(2-Phosphonylmethoxyethyl)-adenine resistant (PMEAr) strains was assessed.

For the next data set, the system named is leukemic L1210 cells. The note with it: literature; cited from earlier work.
Another data set has as its system leukemia L1210 cells. The data set can be described thus: Cytotoxicity against leukemia L1210 cells. The format is cell-based. The note with it: up to a concentration of 2×10^-3. As for the experimental part: (§2) Compounds B and C were tested for cytotoxicity against leukemia L1210 cells up to a concentration of 2×10^-3 according to the method described in Bobek and Bloch, J. Med. Chem., 20, 458, 1977. In addition, these compounds were tested for cytotoxicity against a human T-cell lymophoblast cell line (CEM) according to the method of Vazquez-Padua, et al., Cancer Comm., 2, 55-62 (1990) with the exception that the cell line was different, to assay the cells, the cells were counted with a cell counter and the cells were incubated for 4 days instead of for 3 days.

For the next data set, the system named is HSV-2 (333). In words: Virus Yield method against HSV-2 (333). The format is cell-based. The note with it: Human alphaherpesvirus 2, read-out: ID90 (the source's name).
The test system of data set [1] is HSV-1 (KOS strain). The data set can be described thus: Virus Yield Method against HSV-1 (KOS strain). The format is cell-based. The note with it: for IC90: Human alphaherpesvirus 1, read-out: ID90 (the source's name).
A further data set deals with HSV-1 KOS (PMEAr). The data set can be described thus: Plaque Reduction Method against HSV-1 KOS 9-(2-phosphonylmethoxyethyl)-adenine resistant strain. The format is cell-based. The note with it: Human alphaherpesvirus 1, read-out: ID50. As for the experimental part: as §1
A general note: Plaque reduction counts the foci of infection that form in a cell layer.

For data set [2], the system named is HSV-1 (KOS strain). The data set can be described thus: Plaque reduction method, anti-HSV-1 (KOS strain). The format is cell-based. The note with it: for activity at 1 µM: Human alphaherpesvirus 1, 1 uM; for activity at 1 µM / activity at 5 µM / activity at 25 µM / activity at 100 µM: read-out: Plaque Forming Units, % of Control; for activity at 5 µM: Human alphaherpesvirus 1, 5 uM; for activity at 25 µM: Human alphaherpesvirus 1, 25 uM; for activity at 100 µM: Human alphaherpesvirus 1, 100 uM; for antiherpes activity (in words): data of Table 1. The protocol: Antiviral (HSV) activities of 1-(2'-Deoxy-B-D-ribofuranosyl)-2-pyrazinone-4-N-oxide (A in table 1) and the corresponding 1-(2'-Deoxy-B-D-ribofuranosyl)-5-methyl-2-pyrazinone-N-oxide and 1-(2,-Deoxy-B-D-ribofuranosyl)-5-ethyl-2-pyrazinone-4-N-oxide (respectively, B and C of table 1) were determined according to the procedure described in Gao, et al., Antimic. Agents Chem., 34, 808 (1990), using the plaque reduction method. Table 1 indicates the relative antiviral activities of the three derivatives against HSV-1 (KOS strain).

Another data set deals with herpes simplex. The note with it: literature; comparable to 5-iodo-2'-deoxyuridine; cited from earlier work.
Another data set deals with vaccinia viruses. The note with it: literature; comparable to 5-iodo-2'-deoxyuridine; cited from earlier work.
The subject of a further data set is Varicella Zoster (VZV). The data set can be described thus: Anti-VZV activity (Virus Yield) in HLF human cell line. The format is cell-based. From the text:
As tested, using the above-described methodology, luM of Compound C inhibited 90% of the Virus Yield.

Another data set relates to thymidine phosphorylase. In words: Breakdown by human liver thymidine phosphorylase. The format is biochemical. The note with it: enzyme from human liver. The text has this:
Compound C was also examined against thymidine phosphorylase obtained from the human liver using standard methodology.

Another data set has as its system EBV. The data set can be described thus: Anti-EBV activity, EBV DNA in high EBV producer cell line. The format is cell-based. The note with it: EBV DNA in Hl subclone of P3HR-1 cells, EBV DNA probe BAMH IM. As for the experimental part: In particular, when EBV DNA was assessed in a high EBV producer cell line (Hl, which is a subclone of P3HR-1 cells of Burkitt's lymphoma cell line), Compound C evidenced anti-EBV activity. The methodology employed in the EBV assay is similar to the method of Foster, et al., Jour. Biol. Chem., 266, 238, (1991), except that the EBV DNA was assessed with an EBV DNA probe BAMH IM.

Data set [3] is described as follows: Cytotoxicity against human T-cell lymphoblast cell line (CEM). The format is cell-based. The note with it: human; CEM cells, 4 days incubation; read-out: cytotoxicity ID50. As for the experimental part:
as §2

Data set [4] has as its system human T-cell lymophoblast cell line (CEM). The data set is described as above. The note with it: CEM cells, 4 days incubation. The format is cell-based. The protocol: as §2

As for `O=c1c[n+]([O-])ccn1[C@@H]1O[C@H](CO)[C@@H](O)[C@H]1O` [riboside of 2-pyrazinone-4-N-oxide, reference compound], in the data set on bacterial cells, the “antibacterial / antimicrobial activity” value was “antibacterial activity”.

Take `Cc1cn([C@H]2C[C@H](O)[C@@H](CO)O2)c(=O)c[n+]1[O-]` [Compound B, 1-(2'-Deoxy-B-D-ribofuranosyl)-5-methyl-2-pyrazinone-N-oxide]: in the data set on HSV-1 KOS (PFAr), the IC50 was determined as 1.4 µM. Also, in the data set with leukemic L1210 cells, the “activity against leukemic L1210 cells” value is on record as “significantly more active”. In addition, the cytotoxicity entry with leukemia L1210 cells is listed as “significant cytoxtoxicity”. Also, in the data set with HSV-2 (333), the IC90 was found to be 3 µM. Moreover, the IC90 in the data set on HSV-1 (KOS strain) [1] amounted to 1.8 µM. For the same compound, the IC50 in the data set with HSV-1 KOS (PMEAr) was 0.6 µM. Also, in the data set with bacterial cells, the “antibacterial / antimicrobial activity” value is on record as “only marginally active”. In the data set with HSV-1 (KOS strain) [2], the activity at 1 µM turned out to be 100%, the activity at 5 µM was found to be 39%, the activity at 25 µM is 0.91% and the activity at 100 µM came out at 0.09%. Besides, the “antiherpes activity (in words)” value with HSV-1 (KOS strain) [2] is listed as “significant antiherpes activity”.

In the case of `CCc1cn([C@H]2C[C@H](O)[C@@H](CO)O2)c(=O)[nH]c1=O` [5-ethyl-2'-deoxyuridine], the “activity against herpes simplex” value in the data set with herpes simplex is “significant activity”. Also, the “activity against vaccinia viruses” value with vaccinia viruses is given as “significant activity”.

As to `O=c1c[n+]([O-])ccn1[C@H]1C[C@H](O)[C@@H](CO)O1` [A, 1-(2'-Deoxy-B-D-ribofuranosyl)-2-pyrazinone-4-N-oxide], the “activity against leukemic L1210 cells” value in the data set with leukemic L1210 cells is “essentially inactive”. For the same compound, in the data set on bacterial cells, the “antibacterial / antimicrobial activity” value was “significantly more effective as an antimicrobial agent than the riboside”. Further, in the data set on HSV-1 (KOS strain) [2], the activity at 1 µM amounted to 100%, the activity at 5 µM came to 100%, the activity at 25 µM is 100% and the activity at 100 µM was found to be 100%. Moreover, the “antiherpes activity (in words)” value in the data set with HSV-1 (KOS strain) [2] is “inactive”.

As for `CCc1cn([C@H]2C[C@H](O)[C@@H](CO)O2)c(=O)c[n+]1[O-]` [Compound C, 1-(2-Deoxy-B-D-ribofuranosyl)-5-ethyl-2-pyrazinone-4-N-oxide], in the data set on HSV-1 KOS (PFAr), the IC50 came out at 3.4 µM. Besides, the “activity against VZV (in words)” value with Varicella Zoster (VZV) is listed as “significant activity”. Also, the “inhibition of Virus Yield” value in the data set with Varicella Zoster (VZV) (luM) was 90%. For the same compound, in the data set with leukemia L1210 cells, the cytotoxicity result is given as “virtually no cytotoxicity”. In the data set on HSV-2 (333), the IC90 was 2 µM. Further, the “substrate of thymidine phosphorylase” value in the data set with thymidine phosphorylase is listed as “substrate of the enzyme”. Further, the “rate of breakdown by the enzyme relative to thymidine” value in the data set with thymidine phosphorylase (compared with thymidine) is reported as “much less than the rate or breakdown of thymidine”. Also, in the data set with EBV, the anti-EBV activity entry is “significant anti-EBV activity”. Also, the CC50 at 96 h in data set [3] is > 400 µM. Besides, the “cytotoxicity relative to Compound B” value in [4] is “significantly less toxic than Compound B”. The IC90 in the data set on HSV-1 (KOS strain) [1] was 2.8 µM. In addition, the IC50 with HSV-1 KOS (PMEAr) was found to be 1 µM. Also, in the data set on HSV-1 (KOS strain) [2], the activity at 1 µM was 100%, the activity at 5 µM came to 55%, the activity at 25 µM turned out to be 4.5% and the activity at 100 µM stood at 0.3%. Also, in the data set on HSV-1 (KOS strain) [2], the “antiherpes activity (in words)” value is listed as “significant antiherpes activity”. Moreover, in the data set on HSV-1 (KOS strain) [2] (Human alphaherpesvirus 1, plaque reduction), a half-maximal response (EC50) required 6 µM.

For the compound `Nc1nc2c(ncn2COCCO)c(=O)[nH]1` [acyclovir, reference compound], the IC50 with HSV-1 KOS (PFAr) was 6.2 µM. Also, in the data set on HSV-1 (KOS strain) [1], the “ID90 of ACV relative to Compound C (fold higher)” value is “approximately 7 fold” and the IC90 came to 14 µM.
